How the values were obtained:
Assay type in all cases: cell-based
[1] = system: J774A.1 (Mouse BALB/c monocyte macrophage cell line) cells; experiment: LPS-induced TNF-α secretion inhibition in J774A.1 cells; conditions: J774.A1, 1 μM compound, graded compared to taurodeoxycholic acid (positive control), read-out: TNF-α production inhibition grade
How it was run: (§1)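 Grades (A >100%, B 50–100%, C 20–50%, D <20%) express cytokine suppression by 1 μM compound relative to taurodeoxycholic acid. LPS-induced TNF-α and LPS+ATP-induced IL-1β secretion were measured in murine J774A.1 macrophage cells.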

[2] = system: J774A.1 (Mouse BALB/c monocyte macrophage cell line) cells; experiment: LPS+ATP-induced IL-1β secretion inhibition in J774A.1 cells; conditions: J774.A1, 1 μM compound, graded compared to taurodeoxycholic acid (positive control), read-out: IL-1β production inhibition grade
How it was run: as §1

[3] = system: U937 cells (human monocytic cell line); experiment: Pam2CSK4-induced TNF-α secretion inhibition in PMA-differentiated U937 cells; conditions: U-937, U937 cells differentiated with PMA, read-out: TNF-α production inhibition grade (IC50)
How it was run: (§2)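 Inhibition is given as IC50 (μM) in A-D bands, using distinct thresholds for TNF-α and for IL-1β. Secretion followed Pam2CSK4 stimulation (TNF-α) or BzATP stimulation (IL-1β) of compound-pretreated, PMA-differentiated U937 macrophages.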

[4] = system: U937 cells (human monocytic cell line); experiment: BzATP-induced IL-1β secretion inhibition in PMA-differentiated U937 cells; conditions: U-937, U937 cells differentiated with PMA, read-out: IL-1β production inhibition grade (IC50)
How it was run: as §2

SMILES	inhibition at 1 µM [1]	inhibition at 1 µM [2]	IC50 [3]	IC50 [4]
CC[C@H]1[C@@H](O)[C@@H]2[C@H](CC[C@]3(C)[C@@H]([C@H](C)CCC(=O)N4CCC[C@H](S(=O)(=O)O)C4)CC[C@@H]23)[C@@]2(C)CC[C@@H](O)C[C@@H]12 [NC40009]	< 20%	< 20%	1000 to 2000 nM	100 to 200 nM
CC[C@H]1[C@@H](O)[C@@H]2[C@H](CC[C@]3(C)[C@@H]([C@H](C)CCC(=O)N4CCC[C@@H](S(=O)(=O)O)C4)CC[C@@H]23)[C@@]2(C)CC[C@@H](O)C[C@@H]12 [NC40010]	50 to 100%	< 20%	500 to 1000 nM	≥ 200 nM
CC[C@H]1[C@@H](O)[C@@H]2[C@H](CC[C@]3(C)[C@@H]([C@H](C)CCC(=O)N4CCC(S(=O)(=O)O)CC4)CC[C@@H]23)[C@@]2(C)CC[C@@H](O)C[C@@H]12 [NC40011]	< 20%	20 to 50%	500 to 1000 nM	≥ 200 nM
CC[C@H]1[C@@H](O)[C@@H]2[C@H](CC[C@]3(C)[C@@H]([C@H](C)CCC(=O)N4CC(S(=O)(=O)O)C4)CC[C@@H]23)[C@@]2(C)CC[C@@H](O)C[C@@H]12 [NC40012]	< 20%	50 to 100%	500 to 1000 nM	≥ 200 nM
CC[C@H]1[C@@H](O)[C@@H]2[C@H](CC[C@]3(C)[C@@H]([C@H](C)CCC(=O)NC(C)(C)CS(=O)(=O)O)CC[C@@H]23)[C@@]2(C)CC[C@@H](O)C[C@@H]12 [NC40013]	< 20%	> 100%	1000 to 2000 nM	< 50 nM
CC[C@H]1[C@@H](O)[C@@H]2[C@H](CC[C@]3(C)[C@@H]([C@H](C)CCC(=O)N[C@@H](Cc4ccccc4)CS(=O)(=O)O)CC[C@@H]23)[C@@]2(C)CC[C@@H](O)C[C@@H]12 [NC40014]	< 20%	> 100%	500 to 1000 nM	< 50 nM
CC[C@H]1[C@@H](O)[C@@H]2[C@H](CC[C@]3(C)[C@@H]([C@H](C)CCC(=O)N[C@H](Cc4ccccc4)CS(=O)(=O)O)CC[C@@H]23)[C@@]2(C)CC[C@@H](O)C[C@@H]12 [NC40015]	< 20%	> 100%	500 to 1000 nM	50 to 100 nM
CC[C@H]1[C@@H](O)[C@@H]2[C@H](CC[C@]3(C)[C@@H]([C@H](C)CCC(=O)N[C@@H](CS(=O)(=O)O)C(C)C)CC[C@@H]23)[C@@]2(C)CC[C@@H](O)C[C@@H]12 [NC40017]	< 20%	20 to 50%	500 to 1000 nM	≥ 200 nM
CC[C@H]1[C@@H](O)[C@@H]2[C@H](CC[C@]3(C)[C@@H]([C@H](C)CCC(=O)N[C@H](CS(=O)(=O)O)c4ccccc4)CC[C@@H]23)[C@@]2(C)CC[C@@H](O)C[C@@H]12 [NC40018]	< 20%	> 100%	< 500 nM	< 50 nM
CC[C@H]1[C@@H](O)[C@@H]2[C@H](CC[C@]3(C)[C@@H]([C@H](C)CCC(=O)N[C@@H](CS(=O)(=O)O)c4ccccc4)CC[C@@H]23)[C@@]2(C)CC[C@@H](O)C[C@@H]12 [NC40019]	< 20%	> 100%	1000 to 2000 nM	100 to 200 nM
CC[C@H]1[C@@H](O)[C@@H]2[C@H](CC[C@]3(C)[C@@H]([C@H](C)CCC(=O)N4CCC[C@@H]4CS(=O)(=O)O)CC[C@@H]23)[C@@]2(C)CC[C@@H](O)C[C@@H]12 [NC40020]	< 20%	> 100%	1000 to 2000 nM	100 to 200 nM
CC[C@H]1[C@@H](O)[C@@H]2[C@H](CC[C@]3(C)[C@@H]([C@H](C)CCC(=O)N4CCC[C@H]4CS(=O)(=O)O)CC[C@@H]23)[C@@]2(C)CC[C@@H](O)C[C@@H]12 [NC40021]	< 20%	50 to 100%	500 to 1000 nM	≥ 200 nM
CC[C@H]1[C@@H](O)[C@@H]2[C@H](CC[C@]3(C)[C@@H]([C@H](C)CCC(=O)NC[C@H](C)S(=O)(=O)O)CC[C@@H]23)[C@@]2(C)CC[C@@H](O)C[C@@H]12 [NC40022]	20 to 50%	20 to 50%	500 to 1000 nM	≥ 200 nM
CC[C@H]1[C@@H](O)[C@@H]2[C@H](CC[C@]3(C)[C@@H]([C@H](C)CCC(=O)NC[C@@H](C)S(=O)(=O)O)CC[C@@H]23)[C@@]2(C)CC[C@@H](O)C[C@@H]12 [NC40023]	< 20%	< 20%	500 to 1000 nM	≥ 200 nM
CC[C@H]1[C@@H](O)[C@@H]2[C@H](CC[C@]3(C)[C@@H]([C@H](C)CCC(=O)N[C@@H](CO)CS(=O)(=O)O)CC[C@@H]23)[C@@]2(C)CC[C@@H](O)C[C@@H]12 [NC40024]	< 20%	< 20%	500 to 1000 nM	≥ 200 nM
CC[C@H]1[C@@H](O)[C@@H]2[C@H](CC[C@]3(C)[C@@H]([C@H](C)CCC(=O)N[C@H](CO)CS(=O)(=O)O)CC[C@@H]23)[C@@]2(C)CC[C@@H](O)C[C@@H]12 [NC40025]	20 to 50%	20 to 50%	500 to 1000 nM	50 to 100 nM
CC[C@H]1[C@@H](O)[C@@H]2[C@H](CC[C@]3(C)[C@@H]([C@H](C)CCC(=O)N[C@H]4CCCC[C@H]4S(=O)(=O)O)CC[C@@H]23)[C@@]2(C)CC[C@@H](O)C[C@@H]12 [NC40027]	< 20%	50 to 100%	≥ 2000 nM	≥ 200 nM
CC[C@H]1[C@@H](O)[C@@H]2[C@H](CC[C@]3(C)[C@@H]([C@H](C)CCC(=O)N[C@@H](C)CS(=O)(=O)O)CC[C@@H]23)[C@@]2(C)CC[C@@H](O)C[C@@H]12 [NC40028]	< 20%	50 to 100%	1000 to 2000 nM	100 to 200 nM
CC[C@H]1[C@@H](O)[C@@H]2[C@H](CC[C@]3(C)[C@@H]([C@H](C)CCC(=O)N[C@H](C)CS(=O)(=O)O)CC[C@@H]23)[C@@]2(C)CC[C@@H](O)C[C@@H]12 [NC40029]	< 20%	< 20%	1000 to 2000 nM	≥ 200 nM
CC[C@H]1[C@@H](O)[C@@H]2[C@H](CC[C@]3(C)[C@@H]([C@H](C)CCC(=O)N[C@@H](CC(C)C)CS(=O)(=O)O)CC[C@@H]23)[C@@]2(C)CC[C@@H](O)C[C@@H]12 [NC40030]	< 20%	< 20%	1000 to 2000 nM	≥ 200 nM
CC[C@H]1[C@@H](O)[C@@H]2[C@H](CC[C@]3(C)[C@@H]([C@H](C)CCC(=O)N[C@H](CC(C)C)CS(=O)(=O)O)CC[C@@H]23)[C@@]2(C)CC[C@@H](O)C[C@@H]12 [NC40031]	< 20%	< 20%	1000 to 2000 nM	≥ 200 nM
CC[C@H]1[C@@H](O)[C@@H]2[C@H](CC[C@]3(C)[C@@H]([C@H](C)CCC(=O)NC4(CS(=O)(=O)O)CC4)CC[C@@H]23)[C@@]2(C)CC[C@@H](O)C[C@@H]12 [NC40032]	< 20%	< 20%	1000 to 2000 nM	≥ 200 nM
CC[C@H]1[C@@H](O)[C@@H]2[C@H](CC[C@]3(C)[C@@H]([C@H](C)CCC(=O)N4CC[C@H](S(=O)(=O)O)C4)CC[C@@H]23)[C@@]2(C)CC[C@@H](O)C[C@@H]12 [NC40033]	> 100%	> 100%	< 500 nM	< 50 nM
CC[C@H]1[C@@H](O)[C@@H]2[C@H](CC[C@]3(C)[C@@H]([C@H](C)CCC(=O)N4CC[C@@H](S(=O)(=O)O)C4)CC[C@@H]23)[C@@]2(C)CC[C@@H](O)C[C@@H]12 [NC40034]	20 to 50%	> 100%	< 500 nM	< 50 nM
CC[C@H]1[C@@H](O)[C@@H]2[C@H](CC[C@]3(C)[C@@H]([C@H](C)CCC(=O)N(CCN(C)C)CCS(=O)(=O)O)CC[C@@H]23)[C@@]2(C)CC[C@@H](O)C[C@@H]12 [NC40035]	< 20%	> 100%	< 500 nM	50 to 100 nM
CC[C@H]1[C@@H](O)[C@@H]2[C@H](CC[C@]3(C)[C@@H]([C@H](C)CCC(=O)N(CCS(=O)(=O)O)Cc4cccnc4)CC[C@@H]23)[C@@]2(C)CC[C@@H](O)C[C@@H]12 [NC40036]	< 20%	50 to 100%	1000 to 2000 nM	50 to 100 nM
CC[C@H]1[C@@H](O)[C@@H]2[C@H](CC[C@]3(C)[C@@H]([C@H](C)CCC(=O)N(CCS(=O)(=O)O)c4ccccc4)CC[C@@H]23)[C@@]2(C)CC[C@@H](O)C[C@@H]12 [NC40037]	< 20%	20 to 50%	500 to 1000 nM	50 to 100 nM
CC[C@H]1[C@@H](O)[C@@H]2[C@H](C[C@H](O)[C@]3(C)[C@@H]([C@H](C)CCC(=O)N(C)CCS(=O)(=O)O)CC[C@@H]23)[C@@]2(C)CC[C@@H](O)C[C@@H]12 [NC50004]	< 20%	< 20%	≥ 2000 nM	100 to 200 nM
